Test results reported in patent US7960375B2, “8-chloro-2,3-benzodiazepine derivatives” (priority 2003, dated 2011).

How the values were obtained:
[1] = test system: mice; assay: Permanent focal cerebral ischemia in mice; assay type: in vivo; settings: for Neuroprotective effect (necrotic brain surface area): 30 min after surgery, male NMRI mice, *p < 0.05; for dose that statistically significantly decreased the necrotic surface area: permanent focal ischemia, mice
Procedure: Permanent Focal Cerebral Ischemia in Mice
In these experiments a modified method of Karkoutly et al. (1990) was used. Male NMRI mice weighing 30-35 g were anaesthetized with 2,2,2-tribromoethanol at 500 mg/kg (20 ml/kg) administered i.p. The surgical procedure was performed according to Welsh et al. (1987). After drilling a hole into the skull the distal branch of the middle cerebral artery was electrocoagulated. Test compounds were administered i.p. 30 min after surgery. Two days later the animals were deeply anaesthetized with sodium pentobarbital (120 mg/kg i.p.). The brain was perfused through the left ventricle of the heart with a 4% solution of 2,3,5-triphenyltetrazolium chloride (TTC). One hour later the animals were decapitated, the brains were removed and placed into ice-cold saline for a few min. Then the brains were fixed in 8% formalin solution for 24 hours. The necrotic (non-stained with TTC) brain surface area was measured by means of an image analyser computer system (DigiCell for Windows 4.0). Statistical significance was assessed using ANOVA followed by Duncan's test.

[2] = test system: mice; assay: Maximal electroshock (MES) test in mice; assay type: in vivo; settings: male NMRI mice, electroshock 30 min after ip. treatment
Procedure: Maximal Electroshock (MES) Test in Mice
The experiments were performed according to Swinyard et al. (1952). Male NMRI mice weighing 20 to 25 g were treated intraperitoneally with the test compounds administered in a volume of 10 ml/kg. […] The number of animals showing positive reaction was counted in each group. The dose of test substance causing 50% (ED50) inhibition was calculated according to the method of Litchfield and Wilcoxon (1949).
MES=maximal electroshock (in mice): electroshock of sufficient current intensity applied through corneal electrodes to mice causes tonic extensor convulsion of the hind legs.

[3] = Study of toxic effects in rats (body weight gain); assay type: in vivo; settings: female Wistar rats, 15 mg/kg/day orally for 7 days; mean ± standard error of the mean; control 17.4 ± 1.4
Procedure: Study of Toxic Effects in Rats
The study was performed in female Wistar rats. On the day preceding the first treatment all animals were weighed and randomly allocated into treatment groups (10 animals/group). The test compounds were suspended in 0.4% hydroxymethyl cellulose solution (Methocell F4 M, Daw Chemical Company, USA) and were administered orally once a day for 7 days. The dose of non-chiral compounds according to the examples 8 and 9 was 15 mg/kg/day.
Animals of the control group were treated with the vehicle. The weight of the animals was registered every day. Weight gain was the difference between body weights on the first day and last day of the experiment. Toxicity of the test compounds was shown as a decrease in body weight or negative weight gain.
BWG=body weight gain: the difference between body weights on the first and last days of the experiment given as mean ± standard error of the mean.

SMILES | melting point [°C] | Neuroprotective effect (necrotic brain surface area) ([1]; dose 1.0 mg/kg ip.) | Neuroprotective effect (necrotic brain surface area) ([1]; dose 3.0 mg/kg ip.) | Neuroprotective effect (necrotic brain surface area) ([1]; dose 10.0 mg/kg ip.) | dose that statistically significantly decreased the necrotic surface area [1] [mg/kg i.p.] | MES, ED50 [2] [mg/kg ip.] | BWG (body weight gain) [3] [g] | Neuroprotective effect (necrotic brain surface area) ([1]; dose 0.1 mg/kg ip.) | Neuroprotective effect (necrotic brain surface area) ([1]; dose 0.3 mg/kg ip.)
CCC(=O)N1N=C(c2ccc(N)c(C)c2)c2cc(Cl)ccc2C=C1C | 218 to 221 |  |  |  |  |  |  |  | 
CC(=O)N1N=C(c2ccc(N)cc2)c2cc3c(cc2C=C1C)OCO3 [7-acetyl-5-(4-aminophenyl)-8-methyl-7H-1,3-dioxolo-[4,5-h][2,3]-benzodiazepine, reference compound] |  | −1 | −14 | −21* | 10 |  |  |  | 
CC1=Cc2ccc(Cl)cc2C(c2ccc(N)c(C)c2)=NN1C(=O)NC1CC1 [Example 9, 1-(4-Amino-3-methylphenyl)-8-chloro-4-methyl-3H-2,3-benzodiazepine-3-carboxylic acid cyclopropyl amide] | 233 to 236 |  |  |  |  | 2.2 | 17.7 ± 1.3 |  | 
CNC(=O)N1N=C(c2ccc(N)c(C)c2)c2cc(Cl)ccc2C=C1C [Example 8, 1-(4-Amino-3-methylphenyl)-8-chloro-4-methyl-3H-2,3-benzodiazepine-3-carboxylic acid methyl amide] | 210 to 212 | −17* | −15* | −22* | 0.3 | 4.1 | 9.9 ± 3.1 | −5 | −17*
CC(=O)N1N=C(c2ccc(N)c(C)c2)c2cc(Cl)ccc2C=C1C | 209 to 211 |  |  |  |  |  |  |  | 
